From patent publication US6872720B2 (dated 2005)

| SMILES | melting point [°C] |
| --- | --- |
| Cc1nnc(-c2ccccc2F)n2nc(OCc3ncn(C)n3)c(-c3ccsc3)c12 | 214 to 217 |
| Cc1nnc(-c2ccc(F)cc2)n2nc(OCc3ncnn3C)c(-c3ccsc3)c12 | 171 to 177 |
| CCn1ncnc1COc1nn2c(-c3ccccc3F)nnc(C)c2c1C1CCCC1 | 105 |
| Cc1nnc(-c2ccccc2F)n2nc(OCc3ncnn3C)c(C3CCCC3)c12 | 123 |
| CCn1ncnc1COc1nn2c(-c3ccccc3)nnc(C)c2c1C1CCCC1 | 112 |
| Cc1nnc(-c2ccccc2)n2nc(OCc3ncnn3C)c(C3CCCC3)c12 | 159 |
| CCn1ncnc1COc1nn2c(-c3cc(F)ccc3F)nnc(C)c2c1C(C)(C)C | 109 |

Other lines, results leading:

| melting point [°C] | SMILES |
| --- | --- |
| 124 to 129 | Cc1nnc(-c2ccccc2F)n2nc(OCc3ncnn3C)c(-c3ccsc3)c12 |
| 150 to 153 | Cc1nnc(-c2ccccc2F)n2nc(OCc3ncnn3C)c(-c3ccoc3)c12 |
| 144 to 146 | Cc1nnc(-c2ccc(F)cc2F)n2nc(OCc3ncnn3C)c(-c3ccsc3)c12 |
